# From article PMC6214108, “Synthesis and In Vitro Antitumor Activity of Novel Bivalent β-Carboline-3-carboxylic Acid Derivatives with DNA as a Potential Target” (International Journal of Molecular Sciences, 2018)
# Tests used:
# [1] = test system: SGC-7901 (gastric carcinoma) cell line; test: MTT cytotoxicity assay, SGC-7901; assay type: cell-based; conditions: Homo sapiens, 48 h, mean of three independent experiments, read-out: IC50 (μM) Mean ± SD, SGC-7901
# Description: (§1) All cell lines (A549, SGC-7901, Hela, SMMC-7721, and MCF-7) were purchased from the American Type Culture Collection (Manassas, VA, USA), and were cultured in Dulbecco’s modified Eagle’s medium (DMEM, HycloneLaboratories Inc., Logan, Utah, USA) supplemented with 10% fetal bovine serum (FBS, Gibco&Invitrogen, Carlsbad, CA, USA) at 37 °C and 5% CO2.
# (§2) The cytotoxic activities of β-carboline-3-carboxylic acid derivatives were investigated by the MTT method, as previously described. Cells (1 × 10^4 cells per well) seeded into 96-well plates (JET, Guangzhou, China) were incubated with DMEM containing various concentrations (2.5, 5, 10, 20, 40, and 80 μM) of β-carbolines (4A, 4B, 4C, 4D, 6a-6f, 6g-6l, 6m-6r, and 6s-6x) for 48 h at 37 °C and 5% CO2. Then, 10 µL of 5 mg/mL MTT reagent dissolved in PBS (Phosphate buffered saline) was added per well, and plates were incubated at 37 °C for 4 h. The medium was carefully removed and 100 µL dimethyl sulfoxide (DMSO) was added to dissolve the formazan crystals. The absorbance was measured at 490 nm with a microplate reader (ThermoFisher Scientific Inc., Waltham, MA, USA). The β-carbolines were dissolved in DMSO as stock solutions (10 mM) at −20 °C, and diluted in the final experimental solution using DMEM before use. A549 (lung carcinoma), SGC-7901 (gastric carcinoma), Hela (cervical carcinoma), SMMC-7721 (liver carcinoma), and MCF-7 (breast carcinoma) cell lines were used for the antitumor activity screening. The IC50 values were the mean values of three independent experiments.
# [2] = test system: Hela (cervical carcinoma) cell line; test: MTT cytotoxicity assay, Hela; assay type: cell-based; conditions: Homo sapiens, 48 h, mean of three independent experiments, read-out: IC50 (μM) Mean ± SD, Hela
# Description: as §1, §2
# [3] = test system: SMMC-7721 (liver carcinoma) cell line; test: MTT cytotoxicity assay, SMMC-7721; assay type: cell-based; conditions: Homo sapiens, 48 h, mean of three independent experiments, read-out: IC50 (μM) Mean ± SD, SMMC-7721
# Description: as §1, §2
# [4] = test system: MCF-7 (breast carcinoma) cell line; test: MTT cytotoxicity assay, MCF-7; assay type: cell-based; conditions: Homo sapiens, MCF7, 48 h, mean of three independent experiments, read-out: IC50 (μM) Mean ± SD, MCF-7
# Description: as §1, §2
# [5] = test system: MRC5 (normal lung cell) cell line; test: MTT cytotoxicity assay, MRC5; assay type: cell-based; conditions: Homo sapiens, 48 h
# Description: [The procedure below names another cell line; the source lists this cell line under the same test.] as §2
# A549 cells [6] = test: Cell cycle assay, PI single staining, flow cytometry; assay type: cell-based; conditions: 48 h
# Description: The cell cycle was determined by PI single staining. A549 cells (1 × 10^6 cells per well) seeded into 6-well plates (JET, Guangzhou, China) were incubated with DMEM containing various concentrations (2, 4, and 8 μM) of β-carbolines (4B, 6i, 4D, and 6u) for 48 h at 37 °C and 5% CO2. The cells were harvested, washed with pre-cooled PBS (4 °C), and fixed with pre-cooled 90% ethanol (4 °C). Then, the cells were incubated with 20 μL RNAse (30 μg/mL) and 20 μL PI (50 μg/mL) (Sigma Aldrich, Saint Louis, MO, USA) for 30 min at 37 °C. The samples were analyzed using flow cytometry (BD FACSCalibur, San Jose, CA, USA).
# Figure 2 The cell cycle was detected by flow cytometry using PI single staining. A549 cells were treated with 4B, 6i, 4D, and 6u at 2, 4, and 8 μM for 48 h, and then stained with PI for 30 min at 37 °C. The proportions of cells containing different DNA content were analyzed by FCS Express 5.0 (De Novo Software, Thornhill, Canada).
# A549 cells [7] = test: Hoechst 33342/PI dual staining, morphological observation of apoptosis; assay type: cell-based; conditions: A549, 48 h, 8 μM (Figure 1 legend; method says 4 μM)
# Description: The morphological observation of apoptosis was performed by Hoechst 33342 and propidium iodide (PI) dual staining according to the manufacturer’s instructions. A549 cells (2 × 10^4 cells per well) seeded into 24-well plates (JET, Guangzhou, China) were incubated with DMEM containing 4 μM of β-carbolines (4B, 6i, 4D, and 6u) for 48 h at 37 °C and 5% CO2. Then, the cells were stained by Hoechst 33342 and PI at 37 °C for 30 min in dark conditions. Finally, cells were observed and photographed with a fluorescence microscope (LeicaDM6B, Leica, Nussloch, Germany).
# Figure 1 Morphological observation was performed by Hoechst 33342/propidium iodide (PI) dual staining. A549 cells were treated with 4B, 6i, 4D, and 6u at 8 μM for 48 h, and then stained with Hoechst 33342 and PI at 37 °C in dark conditions. The stained cells were observed under a fluorescence microscope (Leica DM6B, Leica, Nussloch, Germany). Hoechst 33342 was used to stain the living and apoptotic nuclei, and emitted blue fluorescence (upper). PI was used to stain the dead nuclei and emitted red fluorescence (lower).
# CT DNA = test: Thermal denaturation study with CT DNA; assay type: binding, calf; conditions: β-carboline/DNA ratio of 0.5, pH 7.4
# Description: The DNA-binding modes of the β-carboline derivatives (4B, 6i, 4D, and 6u) with CT DNA were examined by DNA thermal denaturation experiments, as previously described. The solutions containing complexes of CT DNA and 4B, 6i, 4D, or 6u were heated using a thermostatic water bath, and the absorbance was measured in 1 °C steps from 30 °C to 95 °C at 260 nm (At) by a UV-Vis spectrophotometer (A is the absorbance of the solution at 260 nm at different temperatures, t is the temperature). The experiments were performed in PE buffer (pH = 7.4) with a β-carboline/DNA ratio of 0.5. The ΔTm value of DNA alone is 56.8 °C. ΔTm = ΔTm^(DNA + 4B, 6i, 4D, or 6u) − ΔTm^(DNA alone).
# Figure 6 Thermal denaturation study of the complexes of β-carbolines (4B, 6i, 4D, and 6u) and CT-DNA. Melting temperatures were measured in PBS-EDTA buffer (1 mM Na2HPO4, 0.1 mM EDTA, PH 7.4) with a β-carboline (4B, 6i, 4D, and 6u)/DNA ratio of 0.5. ΔTm = (ΔTm^4B,6i,4D, or 6u + DNA − ΔTm^DNA).
Compound,IC50 [1] [µM],IC50 [2] [µM],IC50 [3] [µM],IC50 [4] [µM],IC50 [5] [µM],"Percentage of Cell Cycles (%) G1 (A549 cells [6]; A549, 2 μM) [%]","Percentage of Cell Cycles (%) G2/M (A549 cells [6]; A549, 2 μM) [%]","Percentage of Cell Cycles (%) S (A549 cells [6]; A549, 2 μM) [%]","Percentage of Cell Cycles (%) SubG1 (A549 cells [6]; A549, 2 μM) [%]","Percentage of Cell Cycles (%) G1 (A549 cells [6]; A549, 4 μM) [%]","Percentage of Cell Cycles (%) G2/M (A549 cells [6]; A549, 4 μM) [%]","Percentage of Cell Cycles (%) S (A549 cells [6]; A549, 4 μM) [%]","Percentage of Cell Cycles (%) SubG1 (A549 cells [6]; A549, 4 μM) [%]","Percentage of Cell Cycles (%) G1 (A549 cells [6]; A549, 8 μM) [%]","Percentage of Cell Cycles (%) G2/M (A549 cells [6]; A549, 8 μM) [%]","Percentage of Cell Cycles (%) S (A549 cells [6]; A549, 8 μM) [%]","Percentage of Cell Cycles (%) SubG1 (A549 cells [6]; A549, 8 μM) [%]",Morphological observation of cell apoptosis (Hoechst 33342/PI) (A549 cells [7]),ΔTm (CT DNA) [°C]
O=C(OCCCCCOC(=O)c1cc2c3ccccc3n(Cc3ccccc3F)c2cn1)c1cc2c3ccccc3n(Cc3ccccc3F)c2cn1 [Compound 6u],5.86 ± 0.08,14.6 ± 0.36,16.68 ± 0.11,36 ± 2.99,39.89 ± 0.05,56.24,19.97,23.79,6.84,47.06,40.34,12.60,46.25,81.62,18.30,0.08,44.92,could induce cell apoptosis and further cell necrosis,9.0
Cc1ccccc1Cn1c2ccccc2c2cc(C(=O)OCCCCCOC(=O)c3cc4c5ccccc5n(Cc5ccccc5C)c4cn3)ncc21 [Compound 6i],7.18 ± 0.01,9.88 ± 0.04,14.2 ± 0.28,59.3 ± 5.86,37.99 ± 0.1,57.38,10.54,32.08,6.86,45.19,42.40,12.41,26.33,46.64,0.06,53.30,21.32,could induce cell apoptosis and further cell necrosis,8.5
COC(=O)c1cc2c3ccccc3n(Cc3ccccc3F)c2cn1 [Compound 4D],17.8 ± 0.66,26.4 ± 1.33,35.6 ± 1.33,53.9 ± 2.02,35.38 ± 0.01,56.89,18.94,24.17,6.41,47.21,35.46,17.33,39.03,88.01,0.3,11.69,46.29,could induce cell apoptosis and further cell necrosis,3.5
COC(=O)c1cc2c3ccccc3n(Cc3ccccc3C)c2cn1 [Compound 4B],42.3 ± 2.13,31.3 ± 2.33,> 80,> 80,51.78 ± 0.1,59.38,15.46,25.16,6.56,43.06,46.96,9.98,10.49,52.09,2.1,45.81,4.15,could only induce cell apoptosis in a dose-dependent manner,7.5
